Read-outs that look alike come from different tables or passages of the source.

Pest or weed control data for 7 compounds are collected here from patent US10206394B2, “Herbicidal compounds” (Syngenta Participations AG, priority 2014, dated 2019).

Common to all, as to assay: Glasshouse assay for herbicidal activity (pre- and post-emergence), percentage phytotoxicity
Assay type in all cases: in vivo

One assay relates to Lolium perenne (LOLPE). The following applies: Lolium perenne. Put shortly: (§1)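 Sow seed in standard soil in pots; apply test herbicide after 1 day (PRE) or about 12 days (POST). Grow on in the glasshouse, watering twice daily, cool-season species at 20/16 °C and warm-season at 24/18 °C. Score visible damage (0–100%) at 20 or 15 DAA respectively.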
A further assay deals with Avena fatua (AVEFA). The following applies: Avena fatua. Put shortly:
as §1

The test system of assay [1] is Echinochloa crus-galli (ECHCG). The settings on record: Echinochloa crus-galli. Summed up: as §1
Assay [2] has as its system Alopecurus myosuroides (ALOMY). The settings on record: Alopecurus myosuroides. Put shortly:
as §1

The mark [3] stands for this setting: post-emergence, 360 h, POST-emergence, rate 250 g/ha, visual score 15 DAA (100%=total damage, 0%=no damage), read-out: Post-emergence herbicidal activity (percentage phytotoxicity) LOLPE POST.
Where [4] appears, read: post-emergence, 360 h, POST-emergence, rate 250 g/ha, visual score 15 DAA (100%=total damage, 0%=no damage), read-out: Post-emergence herbicidal activity (percentage phytotoxicity) AVEFA POST.
Where [5] appears, read: pre-emergence, 480 h, PRE-emergence, rate 250 g/ha, visual score 20 DAA (100%=total damage, 0%=no damage), read-out: Pre-emergence herbicidal activity (percentage phytotoxicity) AVEFA PRE.
Setting [6] is: post-emergence, 360 h, POST-emergence, rate 250 g/ha, visual score 15 DAA (100%=total damage, 0%=no damage), read-out: Post-emergence herbicidal activity (percentage phytotoxicity) ECHCG POST.
[7] abbreviates: pre-emergence, 480 h, PRE-emergence, rate 250 g/ha, visual score 20 DAA (100%=total damage, 0%=no damage), read-out: Pre-emergence herbicidal activity (percentage phytotoxicity) ECHCG PRE.
The mark [8] stands for this setting: post-emergence, 360 h, POST-emergence, rate 250 g/ha, visual score 15 DAA (100%=total damage, 0%=no damage), read-out: Post-emergence herbicidal activity (percentage phytotoxicity) ALOMY POST.
Where [9] appears, read: pre-emergence, 480 h, PRE-emergence, rate 250 g/ha, visual score 20 DAA (100%=total damage, 0%=no damage), read-out: Pre-emergence herbicidal activity (percentage phytotoxicity) ALOMY PRE.
Where [10] appears, read: post-emergence, 360 h, Rate 250 g/ha, post-emergence, visual assessment 15 DAA, 100%=total damage, 0%=no damage, read-out: Post-emergence herbicidal activity (percentage phytotoxicity) LOLPE POST.
Setting [11] is: pre-emergence, 480 h, Rate 250 g/ha, pre-emergence, visual assessment 20 DAA, 100%=total damage, 0%=no damage, read-out: Pre-emergence herbicidal activity (percentage phytotoxicity) LOLPE PRE.
[12] abbreviates: post-emergence, 360 h, Rate 250 g/ha, post-emergence, visual assessment 15 DAA, 100%=total damage, 0%=no damage, read-out: Post-emergence herbicidal activity (percentage phytotoxicity) AVEFA POST.
Setting [13] is: pre-emergence, 480 h, Rate 250 g/ha, pre-emergence, visual assessment 20 DAA, 100%=total damage, 0%=no damage, read-out: Pre-emergence herbicidal activity (percentage phytotoxicity) AVEFA PRE.
Setting [14] is: post-emergence, 360 h, Rate 250 g/ha, post-emergence, visual assessment 15 DAA, 100%=total damage, 0%=no damage, read-out: Post-emergence herbicidal activity (percentage phytotoxicity) ECHCG POST.
[15] abbreviates: pre-emergence, 480 h, Rate 250 g/ha, pre-emergence, visual assessment 20 DAA, 100%=total damage, 0%=no damage, read-out: Pre-emergence herbicidal activity (percentage phytotoxicity) ECHCG PRE.
[16] abbreviates: post-emergence, 360 h, Rate 250 g/ha, post-emergence, visual assessment 15 DAA, 100%=total damage, 0%=no damage, read-out: Post-emergence herbicidal activity (percentage phytotoxicity) ALOMY POST.
[17] abbreviates: pre-emergence, 480 h, Rate 250 g/ha, pre-emergence, visual assessment 20 DAA, 100%=total damage, 0%=no damage, read-out: Pre-emergence herbicidal activity (percentage phytotoxicity) ALOMY PRE.

Turning to `C/C=C/CNC(=O)CC1CC(=O)C(c2c(C)cc(-c3ncc(F)cn3)cc2C)C1=O` (stereo not shown) [Compound B303], the pest or weed control at 250 g/ha with Lolium perenne (LOLPE) (setting [3]) was 100%; with Lolium perenne (LOLPE) (pre-emergence, 480 h, PRE-emergence, rate 250 g/ha, visual score 20 DAA (100%=total damage, 0%=no damage), read-out: Pre-emergence herbicidal activity (percentage phytotoxicity) LOLPE PRE) it was 80%; with Avena fatua (AVEFA) (setting [4]), 100%; in the assay on Avena fatua (AVEFA) (setting [5]), 80%; in assay [1] (setting [6]) it was 100%; in assay [1] (setting [7]), 100%. Also, the pest or weed control at 250 g/ha in assay [2] (setting [8]) amounted to 100%; in assay [2] (setting [9]), 90%.
Consider `Cc1cc(-c2ncc(F)cc2F)cc(C)c1C1C(=O)CC(CC(=O)NOCc2ccccc2)C1=O` (stereo not shown) [Compound B402], for which the pest or weed control at 250 g/ha in the assay with Lolium perenne (LOLPE) (setting [10]) was 90%; in the assay with Lolium perenne (LOLPE) (setting [11]), 80%; in the assay with Avena fatua (AVEFA) (setting [12]), 100%; in the assay on Avena fatua (AVEFA) (setting [13]), 70%; in assay [1] (setting [14]), 100%; in assay [1] (setting [15]), 80%. The pest or weed control at 250 g/ha was 90% in assay [2] (setting [16]) and 60% in assay [2] (setting [17]).
Turning to `CC(C)=CCNC(=O)CC1CC(=O)C(c2c(C)cc(C)cc2C)C1=O` (stereo not shown) [Compound B163], the pest or weed control at 250 g/ha in the assay on Lolium perenne (LOLPE) (post-emergence, 360 h, 250 g/ha, post-emergence, 15 DAA, visual assessment (100%=total damage, 0%=no damage), read-out: Post-emergence herbicidal activity (percentage phytotoxicity) LOLPE POST) is 80%; with Lolium perenne (LOLPE) (pre-emergence, 480 h, 250 g/ha, pre-emergence, 20 DAA, visual assessment (100%=total damage, 0%=no damage), read-out: Pre-emergence herbicidal activity (percentage phytotoxicity) LOLPE PRE), 100%; in the assay on Avena fatua (AVEFA) (post-emergence, 360 h, 250 g/ha, post-emergence, 15 DAA, visual assessment (100%=total damage, 0%=no damage), read-out: Post-emergence herbicidal activity (percentage phytotoxicity) AVEFA POST) it was 80%; with Avena fatua (AVEFA) (pre-emergence, 480 h, 250 g/ha, pre-emergence, 20 DAA, visual assessment (100%=total damage, 0%=no damage), read-out: Pre-emergence herbicidal activity (percentage phytotoxicity) AVEFA PRE), 50%; in assay [1] (post-emergence, 360 h, 250 g/ha, post-emergence, 15 DAA, visual assessment (100%=total damage, 0%=no damage), read-out: Post-emergence herbicidal activity (percentage phytotoxicity) ECHCG POST), 90%; in assay [1] (pre-emergence, 480 h, 250 g/ha, pre-emergence, 20 DAA, visual assessment (100%=total damage, 0%=no damage), read-out: Pre-emergence herbicidal activity (percentage phytotoxicity) ECHCG PRE), 90%. Further, the pest or weed control at 250 g/ha in assay [2] (post-emergence, 360 h, 250 g/ha, post-emergence, 15 DAA, visual assessment (100%=total damage, 0%=no damage), read-out: Post-emergence herbicidal activity (percentage phytotoxicity) ALOMY POST) stood at 80%; in assay [2] (pre-emergence, 480 h, 250 g/ha, pre-emergence, 20 DAA, visual assessment (100%=total damage, 0%=no damage), read-out: Pre-emergence herbicidal activity (percentage phytotoxicity) ALOMY PRE), 90%.
With `COCCCN(C(=O)CC1CC(OC(=O)C(C)(C)C)=C(c2c(C)cc(C)cc2C)C1=O)C(=O)C(C)(C)C` (stereo not shown) [Compound P9], the pest or weed control at 250 g/ha was 80% in the assay with Lolium perenne (LOLPE) (setting [10]); 90% with Lolium perenne (LOLPE) (setting [11]); 80% with Avena fatua (AVEFA) (setting [12]); 60% in the assay on Avena fatua (AVEFA) (setting [13]); 80% in assay [1] (setting [14]); 90% in assay [1] (setting [15]). Moreover, the figures for the pest or weed control at 250 g/ha in assay [2] (setting [16]) and in assay [2] (setting [17]) were 80% and 90%, respectively.
In the case of `CCCCCNC(=O)CC1CC(=O)C(c2c(C)cc(C)cc2C)C1=O` (stereo not shown) [Compound A177], the pest or weed control at 250 g/ha with Lolium perenne (LOLPE) (post-emergence, 360 h, post-emergence, 250 g/ha, 15 DAA, visual score (100%=total damage; 0%=no damage), read-out: LOLPE POST herbicidal activity (percentage phytotoxicity)) was 80%; in the assay on Lolium perenne (LOLPE) (pre-emergence, 480 h, pre-emergence, 250 g/ha, 20 DAA, visual score (100%=total damage; 0%=no damage), read-out: LOLPE PRE herbicidal activity (percentage phytotoxicity)) it was 100%; in the assay on Avena fatua (AVEFA) (post-emergence, 360 h, post-emergence, 250 g/ha, 15 DAA, visual score (100%=total damage; 0%=no damage), read-out: AVEFA POST herbicidal activity (percentage phytotoxicity)) it was 80%; in the assay on Avena fatua (AVEFA) (pre-emergence, 480 h, pre-emergence, 250 g/ha, 20 DAA, visual score (100%=total damage; 0%=no damage), read-out: AVEFA PRE herbicidal activity (percentage phytotoxicity)), 60%; in assay [1] (post-emergence, 360 h, post-emergence, 250 g/ha, 15 DAA, visual score (100%=total damage; 0%=no damage), read-out: ECHCG POST herbicidal activity (percentage phytotoxicity)), 90%; in assay [1] (pre-emergence, 480 h, pre-emergence, 250 g/ha, 20 DAA, visual score (100%=total damage; 0%=no damage), read-out: ECHCG PRE herbicidal activity (percentage phytotoxicity)), 90%. Besides, the pest or weed control at 250 g/ha in assay [2] (post-emergence, 360 h, post-emergence, 250 g/ha, 15 DAA, visual score (100%=total damage; 0%=no damage), read-out: ALOMY POST herbicidal activity (percentage phytotoxicity)) amounted to 80%; in assay [2] (pre-emergence, 480 h, pre-emergence, 250 g/ha, 20 DAA, visual score (100%=total damage; 0%=no damage), read-out: ALOMY PRE herbicidal activity (percentage phytotoxicity)), 100%.
`CC#Cc1cc(C)c(C2C(=O)CC(CC(=O)NCC(C)(C)C)C2=O)c(C)c1` (stereo not shown) [Compound A65]: the pest or weed control at 250 g/ha stood at 80% in the assay with Lolium perenne (LOLPE) (post-emergence, 360 h, Rate 250 g/ha, post-emergence, assessed visually 15 DAA, 100%=total damage, 0%=no damage, read-out: Post-emergence herbicidal activity (percentage phytotoxicity) LOLPE POST); 90% with Lolium perenne (LOLPE) (pre-emergence, 480 h, Rate 250 g/ha, pre-emergence, assessed visually 20 DAA, 100%=total damage, 0%=no damage, read-out: Pre-emergence herbicidal activity (percentage phytotoxicity) LOLPE PRE); 90% in the assay with Avena fatua (AVEFA) (post-emergence, 360 h, Rate 250 g/ha, post-emergence, assessed visually 15 DAA, 100%=total damage, 0%=no damage, read-out: Post-emergence herbicidal activity (percentage phytotoxicity) AVEFA POST); 70% in the assay on Avena fatua (AVEFA) (pre-emergence, 480 h, Rate 250 g/ha, pre-emergence, assessed visually 20 DAA, 100%=total damage, 0%=no damage, read-out: Pre-emergence herbicidal activity (percentage phytotoxicity) AVEFA PRE); 100% in assay [1] (post-emergence, 360 h, Rate 250 g/ha, post-emergence, assessed visually 15 DAA, 100%=total damage, 0%=no damage, read-out: Post-emergence herbicidal activity (percentage phytotoxicity) ECHCG POST); 100% in assay [1] (pre-emergence, 480 h, Rate 250 g/ha, pre-emergence, assessed visually 20 DAA, 100%=total damage, 0%=no damage, read-out: Pre-emergence herbicidal activity (percentage phytotoxicity) ECHCG PRE). In addition, the pest or weed control at 250 g/ha in assay [2] (post-emergence, 360 h, Rate 250 g/ha, post-emergence, assessed visually 15 DAA, 100%=total damage, 0%=no damage, read-out: Post-emergence herbicidal activity (percentage phytotoxicity) ALOMY POST) turned out to be 90%; in assay [2] (pre-emergence, 480 h, Rate 250 g/ha, pre-emergence, assessed visually 20 DAA, 100%=total damage, 0%=no damage, read-out: Pre-emergence herbicidal activity (percentage phytotoxicity) ALOMY PRE) it was 100%.
`CCN(C)C(=O)CC1CC(=O)C(c2c(C)cc(OCC(F)(F)F)cc2C)C1=O` (stereo not shown) [Compound B211]: the pest or weed control at 250 g/ha with Lolium perenne (LOLPE) (setting [3]) was 90%; in the assay with Avena fatua (AVEFA) (setting [4]) it was 90%; in the assay on Avena fatua (AVEFA) (setting [5]) it was 80%; in assay [1] (setting [6]) it was 100%; in assay [1] (setting [7]), 100%; in assay [2] (setting [8]), 90%. Besides, in assay [2] (setting [9]), the pest or weed control at 250 g/ha worked out at 90%.
